In patent publication US20260183286A1, “Compositions and Methods for an Oral Supplement to Oral Minoxidil for the Treatment of Alopecia” (FOLLEA INTERNATIONAL, priority 2023, published 2026):

Tested on: SLC22A9
Experiment: Placebo controlled study of ammonium chloride oral supplement: SLC22A9 expression from hair follicles
Assay type: in vivo
Conditions: 268 mg ammonium chloride oral supplement daily for 5 days; measured at baseline and day 5; 10 subjects active vs 10 placebo; p=0.01
Description: A placebo controlled study was conducted with a 268 mg ammonium chloride oral supplement to ascertain increase in SLC22A9 up-regulation. Ten subjects were administered the placebo and 10 subjects were administered ammonium chloride daily for 5 days. The SLC22A9 expression from hair follicles was measured at baseline and day 5. SLC22A9 increased 3 folds and was statistically significant p=0.01 increased in the active vs placebo group.

Cl.N [ammonium chloride]
SLC22A9 expression from hair follicles, increase: 3 folds
